Key:
Format in all cases: in vivo
[1] = test system: rice (Oryza sativa); assay: Test B flooded paddy test plant response
In short: (§1)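 Step one: raise plants to 2 leaves. Step two: flood pots 3 cm over the soil and apply compound into the water, keeping this depth. Step three: after 13–15 greenhouse days, score visually versus controls, 0–100, where 100 means complete control.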

[2] = test system: barnyardgrass (Echinochloa crus-galli); assay: Test B flooded paddy test plant response
In short: as §1

[3] = test system: blackgrass (Alopecurus myosuroides); assay: Test B pre-/postemergence plant response; details: for Blackgrass plant response rating: 8 g ai/ha
In short: (§2)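 Seeds were sown and sprayed preemergence, while plants at 2 to 18 cm (1- to 4-leaf stage) got postemergence sprays. Compounds were formulated in a non-phytotoxic solvent mixture with surfactant. After 13 to 15 days in a greenhouse, injury was rated visually against untreated controls, 0 (no effect) to 100 (complete control).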

[4] = test system: common ragweed (Ambrosia elation); assay: Test B pre-/postemergence plant response; details: for Ragweed plant response rating: 8 g ai/ha
In short: as §2

[5] = test system: wild oat (Avena fatua); assay: Test B pre-/postemergence plant response; details: for Oat, Wild plant response rating: 8 g ai/ha
In short: as §2

[6] = test system: catchweed bedstraw (Galium aparine); assay: Test B pre-/postemergence plant response; details: Preemergence
In short: as §2

[7] = test system: large crabgrass (Digitaria sanguinalis); assay: Test B pre-/postemergence plant response; details: for Crabgrass, Large plant response rating: 8 g ai/ha
In short: as §2

[8] = test system: common (oilseed) sunflower (Helianthus annuus); assay: Test B pre-/postemergence plant response; details: Preemergence
In short: as §2

[9] = test system: eastern black (E.B.) nightshade (Solanum ptycanthum); assay: Test B pre-/postemergence plant response; details: Preemergence
In short: as §2

[10] = test system: downy bromegrass (Bromus tectorum); assay: Test B pre-/postemergence plant response; details: for Bromegrass, Downy plant response rating: 8 g ai/ha
In short: as §2

[11] = test system: Italian ryegrass (Lolium multiflorum); assay: Test B pre-/postemergence plant response; details: for Ryegrass, Italian plant response rating: 8 g ai/ha
In short: as §2

[12] = test system: johnsongrass (Sorghum halepense); assay: Test B pre-/postemergence plant response; details: for Johnsongrass plant response rating: 8 g ai/ha
In short: as §2

[13] = test system: morningglory (Ipomoea coccinea); assay: Test B pre-/postemergence plant response; details: for Morningglory plant response rating: 8 g ai/ha
In short: as §2

[14] = test system: pigweed (Amaranthus retroflexus); assay: Test B pre-/postemergence plant response; details: for Pigweed plant response rating: 8 g ai/ha
In short: as §2

[15] = Flood (flooded paddy test), 62 g ai/ha, scale 0 to 100, 0 no effect, 100 complete control
[16] = Flood (flooded paddy test), 125 g ai/ha, scale 0 to 100, 0 no effect, 100 complete control
[17] = Flood (flooded paddy test), 250 g ai/ha, scale 0 to 100, 0 no effect, 100 complete control
[18] = Flood, 31 g ai/ha, scale 0 to 100
[19] = Postemergence, 16 g ai/ha, scale 0 to 100
[20] = Postemergence, 31 g ai/ha, scale 0 to 100, 0 no effect, 100 complete control
[21] = Postemergence, 62 g ai/ha, scale 0 to 100
[22] = Preemergence, 16 g ai/ha, scale 0 to 100 (0 no effect, 100 complete control)
[23] = Preemergence, 31 g ai/ha, 0 to 100 scale, 0 no effect, 100 complete control
[24] = Preemergence, 62 g ai/ha, scale 0 to 100
[25] = 31 g ai/ha, 0 to 100 scale, 0 no effect, 100 complete control
[26] = 16 g ai/ha, scale 0 to 100 (0 no effect, 100 complete control)

CCc1cc(-c2ccc(C(F)(F)F)cc2)nn1-c1c(OS(C)(=O)=O)cnn(C)c1=O [Compound 19]
Plant response rating, Rice [1, 15]: 20 | Plant response rating, Rice [1, 16]: 60 | Plant response rating, Rice [1, 17]: 70 | Plant response rating, Rice [1, 18]: 0 | Plant response rating, Barnyardgrass [2, 15]: 30 | Plant response rating, Barnyardgrass [2, 16]: 60 | Plant response rating, Barnyardgrass [2, 17]: 75 | Plant response rating, Barnyardgrass [2, 18]: 0 | Blackgrass plant response rating ([3]; postemergence, 0-100 scale): 80 | Plant response rating, Blackgrass [3, 19]: 85 | Plant response rating, Blackgrass [3, 20]: 90 | Plant response rating, Blackgrass [3, 21]: 95 | Plant response rating, Blackgrass [3, 22]: 100 | Plant response rating, Blackgrass [3, 23]: 100 | Plant response rating, Blackgrass [3, 24]: 100 | Blackgrass plant response rating ([3]; Preemergence, scale 0 to 100): 95 | Ragweed plant response rating ([4]; postemergence, 0-100 scale): 0 | Plant response rating, Ragweed [4, 19]: 0 | Plant response rating, Ragweed [4, 20]: 0 | Plant response rating, Ragweed [4, 21]: 0 | Plant response rating, Ragweed [4, 22]: 0 | Plant response rating, Ragweed [4, 23]: 0 | Plant response rating, Ragweed [4, 24]: 0 | Ragweed plant response rating ([4]; Preemergence, scale 0 to 100): 0 | Oat, Wild plant response rating ([5]; postemergence, 0-100 scale): 90 | Plant response rating, Oat, Wild [5, 19]: 98 | Plant response rating, Oat, Wild [5, 20]: 100 | Plant response rating, Oat, Wild [5, 21]: 100 | Plant response rating, Oat, Wild [5, 22]: 75 | Plant response rating, Oat, Wild [5, 23]: 95 | Plant response rating, Oat, Wild [5, 24]: 95 | Oat, Wild plant response rating ([5]; Preemergence, scale 0 to 100): 60 | Plant response rating, Galium [6, 25]: 0 | Plant response rating, Galium ([6]; 62 g ai/ha, scale 0 to 100): 0 | Galium plant response rating ([6]; 8 g ai/ha, scale 0 to 100): 0 | Crabgrass, Large plant response rating ([7]; postemergence, 0-100 scale): 80 | Plant response rating, Crabgrass, Large [7, 19]: 85 | Plant response rating, Crabgrass, Large [7, 20]: 95 | Plant response rating, Crabgrass, Large [7, 21]: 100 | Plant response rating, Crabgrass, Large [7, 22]: 100 | Plant response rating, Crabgrass, Large [7, 23]: 100 | Plant response rating, Crabgrass, Large [7, 24]: 100 | Crabgrass, Large plant response rating ([7]; Preemergence, scale 0 to 100): 50 | Plant response rating, Sunflower [8, 26]: 0 | Plant response rating, Sunflower [8, 25]: 0 | Plant response rating, Sunflower ([8]; 62 g ai/ha, scale 0 to 100): 0 | Sunflower plant response rating ([8]; 8 g ai/ha, scale 0 to 100): 0 | Plant response rating, Nightshade, E. B. [9, 26]: 0 | Plant response rating, Nightshade, E. B. ([9]; 62 g ai/ha, scale 0 to 100): 0 | Nightshade, E. B. plant response rating ([9]; 8 g ai/ha, scale 0 to 100): 0 | Bromegrass, Downy plant response rating ([10]; postemergence, 0-100 scale): 10 | Plant response rating, Bromegrass, Downy [10, 19]: 75 | Plant response rating, Bromegrass, Downy [10, 20]: 75 | Plant response rating, Bromegrass, Downy [10, 21]: 90 | Plant response rating, Bromegrass, Downy [10, 22]: 0 | Plant response rating, Bromegrass, Downy [10, 23]: 30 | Plant response rating, Bromegrass, Downy [10, 24]: 60 | Bromegrass, Downy plant response rating ([10]; Preemergence, scale 0 to 100): 0 | Ryegrass, Italian plant response rating ([11]; postemergence, 0-100 scale): 80 | Plant response rating, Ryegrass, Italian [11, 19]: 98 | Plant response rating, Ryegrass, Italian [11, 20]: 100 | Plant response rating, Ryegrass, Italian [11, 21]: 100 | Plant response rating, Ryegrass, Italian [11, 22]: 90 | Plant response rating, Ryegrass, Italian [11, 23]: 100 | Plant response rating, Ryegrass, Italian [11, 24]: 100 | Ryegrass, Italian plant response rating ([11]; Preemergence, scale 0 to 100): 50 | Johnsongrass plant response rating ([12]; postemergence, 0-100 scale): 40 | Plant response rating, Johnsongrass [12, 19]: 80 | Plant response rating, Johnsongrass [12, 20]: 100 | Plant response rating, Johnsongrass [12, 21]: 100 | Plant response rating, Johnsongrass [12, 22]: 100 | Plant response rating, Johnsongrass [12, 23]: 100 | Plant response rating, Johnsongrass [12, 24]: 100 | Johnsongrass plant response rating ([12]; Preemergence, scale 0 to 100): 80 | Morningglory plant response rating ([13]; postemergence, 0-100 scale): 0 | Plant response rating, Morningglory [13, 19]: 0 | Plant response rating, Morningglory [13, 20]: 0 | Plant response rating, Morningglory [13, 21]: 0 | Plant response rating, Morningglory [13, 22]: 0 | Plant response rating, Morningglory [13, 23]: 0 | Plant response rating, Morningglory [13, 24]: 0 | Morningglory plant response rating ([13]; Preemergence, scale 0 to 100): 0 | Pigweed plant response rating ([14]; postemergence, 0-100 scale): 0 | Plant response rating, Pigweed [14, 19]: 0 | Plant response rating, Pigweed [14, 20]: 0 | Plant response rating, Pigweed [14, 21]: 0 | Plant response rating, Pigweed [14, 22]: 0 | Plant response rating, Pigweed [14, 23]: 0 | Plant response rating, Pigweed [14, 24]: 0 | Pigweed plant response rating ([14]; Preemergence, scale 0 to 100): 0

From patent US20100267561A1, “HERBICIDAL PYRIDAZINONE DERIVATIVES” (priority 2007, published 2010)
